Publication PMC2806265, “Divergence of allosteric effects of rapacuronium on binding and function of muscarinic receptors” (BMC Pharmacology, 2009)
Marks after values point to notes of the source that are not given here.

Key:
M5 muscarinic receptor [1] = target: T1, M5 muscarinic receptor (Homo sapiens, UniProt P08912); assay: [3H]NMS saturation binding
T1 sequence (P08912 1-532): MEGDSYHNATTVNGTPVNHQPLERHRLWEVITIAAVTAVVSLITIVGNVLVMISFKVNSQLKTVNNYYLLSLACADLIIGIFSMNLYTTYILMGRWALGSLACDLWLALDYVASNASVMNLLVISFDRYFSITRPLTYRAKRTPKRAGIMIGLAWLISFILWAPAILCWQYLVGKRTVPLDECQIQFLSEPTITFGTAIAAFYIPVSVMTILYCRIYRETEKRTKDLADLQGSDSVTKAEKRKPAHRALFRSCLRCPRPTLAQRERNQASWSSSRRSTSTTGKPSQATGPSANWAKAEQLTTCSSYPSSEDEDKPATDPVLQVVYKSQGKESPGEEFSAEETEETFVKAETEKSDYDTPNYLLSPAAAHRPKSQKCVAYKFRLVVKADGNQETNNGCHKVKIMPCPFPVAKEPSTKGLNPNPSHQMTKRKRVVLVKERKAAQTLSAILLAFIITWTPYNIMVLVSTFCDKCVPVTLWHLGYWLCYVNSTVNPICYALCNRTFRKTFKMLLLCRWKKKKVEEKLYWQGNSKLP
Source text: (§2) BMAX, maximum binding capacity; KD, equilibrium dissociation constant.

M4 muscarinic receptor = target: T2, M4 muscarinic receptor (Homo sapiens, UniProt P08173); assay: [3H]NMS saturation binding
T2 sequence (P08173 1-479): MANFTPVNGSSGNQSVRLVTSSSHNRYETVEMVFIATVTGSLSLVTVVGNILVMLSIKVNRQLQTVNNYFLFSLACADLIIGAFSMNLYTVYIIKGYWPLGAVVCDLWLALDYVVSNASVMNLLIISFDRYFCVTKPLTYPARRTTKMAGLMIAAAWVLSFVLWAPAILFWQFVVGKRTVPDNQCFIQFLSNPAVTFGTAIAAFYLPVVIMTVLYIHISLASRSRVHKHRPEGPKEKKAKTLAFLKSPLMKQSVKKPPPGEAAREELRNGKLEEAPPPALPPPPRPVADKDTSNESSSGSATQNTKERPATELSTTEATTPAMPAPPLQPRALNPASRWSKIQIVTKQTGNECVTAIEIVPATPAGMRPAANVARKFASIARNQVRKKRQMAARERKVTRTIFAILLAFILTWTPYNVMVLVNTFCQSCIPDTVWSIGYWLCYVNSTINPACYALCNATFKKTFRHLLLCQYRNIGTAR
Source text: as §2

M5 muscarinic receptor [2] = target: T1, M5 muscarinic receptor; assay: [35S]GTPγS binding to membranes; type: biochemical; parameters: host or cells: CHO cells, stably transfected; membranes; details: for EMAX of ACh on [^35S]GTPγS binding: fold of basal
Description: For determination of [^35S]GTPγS binding to G-proteins in membranes a final concentration of 200 pM (M1, M3 and M5 receptors) or 500 pM (M2 and M4 receptors) of [^35S]GTPγS was used. Incubation medium was supplemented with 5 μM (M1, M3 and M5 receptors) or 50 μM (M2 and M4 receptors) GDP. […] Incubation with [^35S]GTPγS was carried out for 20 min and free ligand was removed by filtration as described above. Filtration and washing with ice-cold water lasted for 9 s (wash-aspirate button time).

M2 muscarinic receptor [3] = target: T3, M2 muscarinic receptor (Homo sapiens, UniProt P08172); assay: Effect of rapacuronium on low-affinity ACh binding ([3H]NMS + GTPγS + ACh); parameters: host or cells: CHO cells, stably transfected; membrane preparation
T3 sequence (P08172 1-466): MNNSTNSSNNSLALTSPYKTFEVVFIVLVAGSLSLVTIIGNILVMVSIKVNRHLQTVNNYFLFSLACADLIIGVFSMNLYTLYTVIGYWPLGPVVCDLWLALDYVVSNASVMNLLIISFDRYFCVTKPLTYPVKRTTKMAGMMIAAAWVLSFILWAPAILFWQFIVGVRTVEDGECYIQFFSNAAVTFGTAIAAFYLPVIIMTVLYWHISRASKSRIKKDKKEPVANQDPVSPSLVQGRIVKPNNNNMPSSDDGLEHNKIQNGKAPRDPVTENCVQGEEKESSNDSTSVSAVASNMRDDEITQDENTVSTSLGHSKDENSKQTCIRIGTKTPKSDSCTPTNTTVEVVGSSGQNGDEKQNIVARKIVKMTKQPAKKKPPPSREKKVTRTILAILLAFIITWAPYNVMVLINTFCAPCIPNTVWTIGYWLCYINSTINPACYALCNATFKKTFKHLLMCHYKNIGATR
Source text: Data are expressed as percent of specific binding in the absence of rapacuronium. […] Data are means ± SE from 3 independent experiments performed in quadruplicates. Curves are fits of Eq. 3 (circles) and Eq. 4 (squares and triangles) to data prior to normalization.

M2 muscarinic receptor [4] = target: T3, M2 muscarinic receptor; assay: [3H]NMS dissociation
Source text: y, radioligand binding at time x normalized to binding at time 0; koff1 and koff2, dissociation rate constants; f2, fraction of binding site with dissociation rate constant koff2. When both Eq. 7a and 7b were fitted to data the better fit was chosen based on sum of squares F-test and runs test.

M1 muscarinic receptor [5] = target: T4, M1 muscarinic receptor (Homo sapiens, UniProt P11229); assay: Effect of rapacuronium on high-affinity 20 nM [3H]ACh binding
T4 construct: host or cells: CHO cells, stably transfected; membrane preparation
T4 sequence (P11229 1-460): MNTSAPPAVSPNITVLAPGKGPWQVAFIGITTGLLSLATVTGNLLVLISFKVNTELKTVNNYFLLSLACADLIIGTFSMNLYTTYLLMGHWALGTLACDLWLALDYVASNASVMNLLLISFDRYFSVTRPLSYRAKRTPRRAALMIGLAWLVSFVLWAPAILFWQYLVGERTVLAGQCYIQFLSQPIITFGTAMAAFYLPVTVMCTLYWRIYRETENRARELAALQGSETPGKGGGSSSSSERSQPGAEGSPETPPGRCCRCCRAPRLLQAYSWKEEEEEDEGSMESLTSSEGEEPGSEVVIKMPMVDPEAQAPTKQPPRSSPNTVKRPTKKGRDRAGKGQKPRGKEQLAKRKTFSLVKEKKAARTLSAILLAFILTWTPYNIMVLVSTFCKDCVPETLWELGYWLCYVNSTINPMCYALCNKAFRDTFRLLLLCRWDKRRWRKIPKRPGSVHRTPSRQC
Source text: (§1) Cooperativity factor greater than 1 denotes negative cooperativity and less than 1 positive cooperativity. Due to its log-normal error distribution factors of cooperativity are expressed as negative logarithms (pα) through the manuscript so negative values denotes negative cooperativity and positive value denotes positive cooperativity.

M3 muscarinic receptor [6] = target: T5, M3 muscarinic receptor (Homo sapiens, UniProt P20309); assay: as above
T5 construct: host or cells: CHO cells, stably transfected; membranes
Source text: as §1

M1 muscarinic receptor [7] = target: T4, M1 muscarinic receptor; assay: Effect of rapacuronium on 1 nM [3H]NMS binding
Source text: as §1

M3 muscarinic receptor [8] = target: T5, M3 muscarinic receptor; assay: Effect of rapacuronium on 1 nM [3H]NMS binding
Source text: as §1

[9] = read-out: pKA of rapacuronium (converted)
[10] = M1, negative value = negative cooperativity
[11] = M3, negative value = negative cooperativity

T5 sequence (P20309 whole entry): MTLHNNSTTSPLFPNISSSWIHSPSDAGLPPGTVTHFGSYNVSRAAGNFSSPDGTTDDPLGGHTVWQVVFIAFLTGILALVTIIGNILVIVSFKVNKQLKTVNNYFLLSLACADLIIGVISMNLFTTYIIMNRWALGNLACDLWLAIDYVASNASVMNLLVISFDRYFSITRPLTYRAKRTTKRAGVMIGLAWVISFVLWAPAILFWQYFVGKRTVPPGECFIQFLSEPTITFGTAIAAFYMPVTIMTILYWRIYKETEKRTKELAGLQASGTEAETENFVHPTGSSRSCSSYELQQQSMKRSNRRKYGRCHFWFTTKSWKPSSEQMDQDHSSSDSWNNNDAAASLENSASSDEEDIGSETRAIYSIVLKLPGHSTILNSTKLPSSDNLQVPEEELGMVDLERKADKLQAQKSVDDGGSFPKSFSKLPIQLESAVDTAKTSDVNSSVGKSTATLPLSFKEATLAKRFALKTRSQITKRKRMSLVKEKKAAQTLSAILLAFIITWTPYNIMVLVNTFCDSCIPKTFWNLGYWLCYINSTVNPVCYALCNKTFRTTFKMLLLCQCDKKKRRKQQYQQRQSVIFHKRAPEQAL

Compound: C=CC[N+]1([C@H]2C[C@H]3[C@@H]4CC[C@H]5C[C@H](OC(C)=O)[C@@H](N6CCCCC6)C[C@]5(C)[C@H]4CC[C@]3(C)[C@H]2OC(=O)CC)CCCCC1 [rapacuronium]
- BMAX of [^3H]NMS (M5 muscarinic receptor [1]; + 10 μM rapacuronium): 1.53 ± 0.15 fmol/μg of protein
- BMAX of [^3H]NMS (M5 muscarinic receptor [1]; + 100 μM rapacuronium): 1.33 ± 0.13 fmol/μg of protein
- BMAX of [^3H]NMS (M4 muscarinic receptor; + 10 μM rapacuronium): 1.17 ± 0.13 fmol/μg of protein
- BMAX of [^3H]NMS (M4 muscarinic receptor; + 100 μM rapacuronium): 1.06 ± 0.10 fmol/μg of protein
- EC50 (M5 muscarinic receptor [2]): 61.7 µM
- decrease in ACh EC50 (M5 muscarinic receptor [2]; M5, 0.1 μM rapacuronium): 1.5 fold
- decrease in ACh EC50 (M5 muscarinic receptor [2]; M5, 1 μM rapacuronium): 4 fold
- EMAX of ACh on [^35S]GTPγS binding (M5 muscarinic receptor [2]; M5, + 0.1 μM rapacuronium): 2.10 ± 0.09
- EMAX of ACh on [^35S]GTPγS binding (M5 muscarinic receptor [2]; M5, + 1 μM rapacuronium): 2.04 ± 0.09
- EMAX of ACh on [^35S]GTPγS binding (M5 muscarinic receptor [2]; M5, + 10 μM rapacuronium): 2.22 ± 0.09
- EMAX of rapacuronium on [^35S]GTPγS binding (M5 muscarinic receptor [2]; M5, rapacuronium alone, normalized to absence of rapacuronium): 0.75 ± 0.07
- pβ, cooperativity with ACh low affinity binding (M2 muscarinic receptor [3]; M2, negative value = negative cooperativity): -1.52 ± 0.06
- Kd (M2 muscarinic receptor [3]; [9]): 2.75 µM
- decrease in rate of [^3H]NMS dissociation (M2 muscarinic receptor [4]; 100 μM rapacuronium): 7 fold
- f2, fraction of sites with faster dissociation (M2 muscarinic receptor [4]; + 100 μM rapacuronium): 23 ± 5%
- koff1 of [^3H]NMS dissociation (M2 muscarinic receptor [4]; + 100 μM rapacuronium): 0.026 ± 0.002* min^-1
- koff2 of [^3H]NMS dissociation (M2 muscarinic receptor [4]; + 100 μM rapacuronium): 0.0127 ± 0.00183 s⁻¹
- pα, cooperativity with [^3H]ACh high affinity binding (M1 muscarinic receptor [5]; [10]): -1.30 ± 0.07
- Kd (M1 muscarinic receptor [5]; [9]): 4.27 µM
- pα, cooperativity with [^3H]ACh high affinity binding (M3 muscarinic receptor [6]; [11]): -1.26 ± 0.05
- Kd (M3 muscarinic receptor [6]; [9]): 15.8 µM
- pα, cooperativity with [^3H]NMS (M1 muscarinic receptor [7]; [10]): -1.08 ± 0.05
- Kd (M1 muscarinic receptor [7]; [9]): 4.27 µM
- pα, cooperativity with [^3H]NMS (M3 muscarinic receptor [8]; [11]): -1.11 ± 0.05
- Kd (M3 muscarinic receptor [8]; [9]): 17.8 µM
